{"source": "patent US20230265479A1", "about": "(priority 2020, published 2023)", "key": {"[1]": {"system": "Firefly Luciferase reporter gene driven by the C3P3-G1 system in HEK-293 cells", "assay_type": "cell-based, human"}, "[2]": {"system": "Firefly Luciferase reporter gene driven by the C3P3-G2 system in HEK-293 cells", "assay_type": "cell-based, human"}, "[3]": {"molecular_target": "EIF2AK2 (Homo sapiens, UniProt P19525)", "sequence (P19525 whole entry)": "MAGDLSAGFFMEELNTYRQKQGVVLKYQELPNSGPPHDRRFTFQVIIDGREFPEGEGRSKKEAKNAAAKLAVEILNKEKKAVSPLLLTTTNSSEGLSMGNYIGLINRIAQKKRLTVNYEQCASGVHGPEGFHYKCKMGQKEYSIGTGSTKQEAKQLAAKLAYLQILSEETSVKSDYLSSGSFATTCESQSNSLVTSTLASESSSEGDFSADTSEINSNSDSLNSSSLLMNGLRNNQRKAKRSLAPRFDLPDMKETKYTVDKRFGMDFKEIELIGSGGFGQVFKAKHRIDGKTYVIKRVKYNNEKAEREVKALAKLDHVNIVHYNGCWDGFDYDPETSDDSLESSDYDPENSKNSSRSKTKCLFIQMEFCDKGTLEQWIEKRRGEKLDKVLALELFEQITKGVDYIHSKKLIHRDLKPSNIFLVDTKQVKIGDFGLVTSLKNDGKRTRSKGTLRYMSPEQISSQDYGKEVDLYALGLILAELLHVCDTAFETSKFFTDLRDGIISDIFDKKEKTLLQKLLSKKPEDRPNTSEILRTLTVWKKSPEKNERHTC", "settings": "binds ATP-binding site; inhibits RNA-induced EIF2AK2 autophosphorylation (Jammi et al. 2003); cited from earlier work"}}}
{"smiles": "O=C1Nc2ccc3ncsc3c2/C1=C/c1cnc[nH]1", "note": "[CAS 608512-97-6]", "values": [{"measurement": "Maximum efficacy, relative ratio vs. negative control cells", "setting": "[1]", "value": 1.31, "unit": "fold"}, {"measurement": "Maximum efficacy, relative ratio vs. negative control cells", "setting": "[2]", "value": 1.67, "unit": "fold"}, {"measurement": "IC50", "setting": "[3]", "value": 210, "unit": "nM"}]}
